Measured values taken from US12097235B2, “Anti-acne pharmaceutical compositions” (priority 2018, dated 2024).
Converted amounts (≈) assume the structure as drawn.

Tests used:
[1] = test system: COX-2 protein levels in HT-29 cells; conditions: at 3.6 μg/ml; cited from earlier work
[2] = test system: Cutibacterium acnes (ATCC 6919); assay: Antibacterial assay (MIC, broth microdilution, Presto Blue); format: cell-based; conditions: ATCC6919, C. acnes ATCC 6919, 72 hours, anaerobic, read-out: minimum inhibitory concentration (MIC)
Experimental: The ethanolic extract of Plectranthus […] tested against Cutibacterium acnes (ATCC 6919). The C. acnes bacteria was cultured from a Kwik-Stick on mouse heart and brain agar and then incubated at 37° C. for 72 hours under anaerobic conditions before the assay was done. The 72 hour old bacterial culture was dissolved in brain heart infusion broth and the suspension was adjusted to a 0.5 McFarland standard turbidity. This led to 10^5-10^6 colony forming units (CFU)/ml. In a sterile 96-well plate, 100 μl of the samples from the stock solution that consisted of the plant extracts (2 mg/ml dissolved in 10% dimethyl sulphoxide (DMSO)) and tetracycline the positive control (0.2 mg/ml) was diluted with broth. Twofold serial dilutions were done in broth over a range to give the concentrations 500-3.9 μg/ml for the plant extract and 50-0.3 μg/ml for tetracycline. To all the wells of the 96-well plate, 100 μl of bacterial suspension was added. The solvent control wells contained 2.5% DMSO with bacterial suspension and no plant samples and the negative control, bacterial suspension with no plant samples. The plates were incubated at 37° C. for 72 hours under anaerobic conditions.

[3] = DPPH radical scavenging assay; format: biochemical
Experimental: The antioxidant activities of Plectranthus […] ethanolic extract was investigated using 1,1-Diphenyl-2-picrylhydrazyl (DPPH) free radical scavenging assay as described by Mavundza (Mavundza, 2010). To the top wells of a 96-well ELISA plate 200 μl of distilled water was added and to the remaining wells 110 μl of distilled water as a medium. Twenty microliters of plant extract and the controls was added to the first top wells that followed a double dilution. To each of the wells 90 μl of 90 μM DPPH ethanolic solution was added and left to incubate covered with aluminium foil for 30 minutes at room temperature. The final concentrations for the Plectranthus […] ethanolic extracts ranged from 3.9 to 500 μg/ml (Mavundza, 2010). […] The radical scavenging capacities of the extracts were determined by using a BIO-TEK Power Wave Multiwell plate reader ([…], South Africa) at 515 nm using KC Junior software (Highland Park, Winooski, Vermont, USA) to measure the disappearance of DPPH at 515 nm. The radical scavenging activity was determined as a percentage DPPH radical-scavenging that was calculated by the following equation, where AC is the absorbance of the control solution that only contains DPPH and AS is the absorbance of the plant sample in DPPH solution: % DPPH radical-scavenging=(AC-AS)/AC×100 […]

[4] = NO antioxidant (nitric oxide scavenging) assay; format: biochemical
MMP-9 enzyme = biological target: T1, MMP-9 enzyme (Homo sapiens, UniProt P14780); assay: Matrix metalloproteinase-9 assay (colorimetric kit); format: biochemical; conditions: at 0.411 μg/ml, single concentration
T1 construct: purchased Enzo Life Sciences BML-AK410
Experimental: The MMP-9 Colorimetric Drug Discovery Kit (BML-AK410) from Enzo Life Sciences was used. The experiment was carried out as described in the instruction manual. The MMP chromogenic substrate (Ac-PLG-[2-mercapto-4-methyl-pentanoyl]-LG-OC2H5) and the inhibitor N-Isobutyl-N-(4-methoxyphenylsulfonyl)glycyl hydroxamic acid (NNGH) was thawed to room temperature. The inhibitor was diluted 1/200 in assay buffer (50 mM HEPES, 10 mM CaCl2, 0.05% Brij-35, 1 mM DTNB, pH 7.5) and warmed until 37° C. The substrate was diluted 1/25 in assay buffer to the required volume. The MMP-9 enzyme was diluted in assay buffer to 1/60 and warmed until 37° C. just before the assay. The plant extract was dissolved in dimethyl sulfoxide (DMSO) to a starting concentration of 2 mg/ml.
In the plant extract wells, 50 μl of plant extract and 90 μl of buffer was added to the first well of the 96 well plate (½ volume). To the rest of the plant extract wells, 70 μl of buffer was added and the plant extracts serially diluted. Assay buffer was plated in the rest of the relevant wells as follows: blank 90 μl, control 70 μl, and NNGH 50 μl. […] The plates were continuously read at A412nm by using a BIO-TEK Power Wave Multiwell plate reader (A.D.P., Weltevreden Park, South Africa) at one (1) minute intervals for twenty (20) minutes using KC Junior software (Highland Park, Winooski, Vermont, USA).

T1 sequence (P14780 107-444 limits assumed): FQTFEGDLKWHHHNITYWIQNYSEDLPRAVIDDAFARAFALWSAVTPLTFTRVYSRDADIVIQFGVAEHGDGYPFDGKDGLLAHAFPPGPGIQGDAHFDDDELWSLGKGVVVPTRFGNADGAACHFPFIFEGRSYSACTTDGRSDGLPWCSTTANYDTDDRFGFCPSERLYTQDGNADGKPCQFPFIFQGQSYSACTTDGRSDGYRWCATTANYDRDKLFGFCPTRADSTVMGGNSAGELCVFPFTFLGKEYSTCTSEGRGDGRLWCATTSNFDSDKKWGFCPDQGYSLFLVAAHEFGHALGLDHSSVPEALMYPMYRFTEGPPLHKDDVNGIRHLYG

O=C(/C=C/c1ccc(O)c(O)c1)O[C@H](Cc1ccc(O)c(O)c1)C(=O)O [rosmarinic acid]
effect on COX-2 protein levels [1]: reduced COX-2 protein levels in HT-29 cells to levels comparable to that of the control cells

CN(C)[C@@H]1C(O)=C(C(N)=O)C(=O)[C@@]2(O)C(O)=C3C(=O)c4c(O)cccc4[C@@](C)(O)[C@H]3C[C@@H]12 [tetracycline]
MIC [2]: 0.78 µg/mL (≈ 1.76 µM)

O=C1O[C@H]([C@@H](O)CO)C(O)=C1O [vitamin C, L-ascorbic acid]
DPPH antioxidant activity IC50 [3]: 9.0 ± 2.0 µg/mL
nitric oxide (NO) antioxidant activity IC50 [4]: 65.8 ± 5.9 µg/mL

COc1ccc(S(=O)(=O)N(CC(=O)NO)CC(C)C)cc1 [positive control, N-Isobutyl-N-(4-methoxyphenylsulfonyl)glycyl hydroxamic acid]
MMP-9 inhibition (MMP-9 enzyme): 96%

O=c1cc(-c2ccc(O)c(O)c2)oc2cc(O)cc(O)c12 [Luteolin]
MIC [2]: 62.5 µg/mL (≈ 218 µM)
